Measurements as given in patent publication US9765085B2, “SHIP1 modulators and methods related thereto” (Aquinox Pharmaceuticals (Canada) Inc., priority 2013, dated 2017).

Molecular target: T1, His-hSHIP1 enzyme (Homo sapiens, UniProt Q92835)
T1 construct: His
T1 sequence (Q92835 1-1189): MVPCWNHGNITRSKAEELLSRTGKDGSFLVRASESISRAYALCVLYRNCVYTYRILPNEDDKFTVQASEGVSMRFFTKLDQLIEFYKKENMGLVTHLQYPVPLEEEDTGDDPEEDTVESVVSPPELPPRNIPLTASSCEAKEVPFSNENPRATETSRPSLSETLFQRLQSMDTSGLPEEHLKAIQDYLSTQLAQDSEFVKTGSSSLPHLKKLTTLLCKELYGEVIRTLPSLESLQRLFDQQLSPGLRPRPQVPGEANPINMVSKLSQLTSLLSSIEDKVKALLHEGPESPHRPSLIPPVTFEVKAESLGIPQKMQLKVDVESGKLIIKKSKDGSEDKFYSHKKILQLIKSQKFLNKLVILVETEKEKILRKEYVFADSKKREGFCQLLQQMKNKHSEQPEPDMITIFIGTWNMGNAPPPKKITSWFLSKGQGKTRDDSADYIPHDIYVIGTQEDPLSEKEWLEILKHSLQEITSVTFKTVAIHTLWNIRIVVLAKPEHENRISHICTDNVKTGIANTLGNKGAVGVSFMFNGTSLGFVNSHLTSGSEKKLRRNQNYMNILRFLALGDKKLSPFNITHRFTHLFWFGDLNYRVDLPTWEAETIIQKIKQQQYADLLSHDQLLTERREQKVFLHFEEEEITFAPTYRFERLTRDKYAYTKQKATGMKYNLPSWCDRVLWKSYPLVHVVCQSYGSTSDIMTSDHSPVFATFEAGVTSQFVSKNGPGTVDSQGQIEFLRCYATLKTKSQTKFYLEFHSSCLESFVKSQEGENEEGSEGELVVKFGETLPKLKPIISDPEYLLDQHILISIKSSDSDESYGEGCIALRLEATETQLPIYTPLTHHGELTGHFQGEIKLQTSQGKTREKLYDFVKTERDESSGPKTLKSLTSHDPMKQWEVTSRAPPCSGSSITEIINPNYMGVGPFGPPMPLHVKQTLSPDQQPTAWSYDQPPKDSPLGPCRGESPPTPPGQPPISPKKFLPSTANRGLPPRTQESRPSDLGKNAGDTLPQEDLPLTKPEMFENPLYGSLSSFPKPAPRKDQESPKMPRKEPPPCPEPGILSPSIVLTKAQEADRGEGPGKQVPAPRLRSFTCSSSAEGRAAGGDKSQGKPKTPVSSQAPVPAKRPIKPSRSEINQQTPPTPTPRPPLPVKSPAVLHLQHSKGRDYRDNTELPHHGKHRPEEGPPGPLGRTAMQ
Test: His-hSHIP1 activity (phosphatase assay, IP4 substrate, Biomol Green)
Format: biochemical
Parameters: key: +++: higher than reference or reference - 15%; ++: reference - 16% to reference - 30%; +: reference - 31% or lower; −: inhibitor
Details: ratio of initial velocities (IP4 25/IP4 250 μM final) compared with a reference SHIP1 activator; 37° C.
Protocol: Test compounds are dissolved in 95% ethanol to form stock solutions. Before screening, the stock solutions are diluted with Phosphatase Assay Buffer (20 mM Tris-HCL, 10 mM MgCl2 pH 7.5, 0.02% Tween 20) to form working assay solutions that contain 10% ethanol. The assay is carried out on 96-well microtiter plates using a modified procedure of that reported by Ong et al., Blood 110, 1942-1949, 2007 and Yang et al., Org Lett 7, 1073-1076, 2005, both of which references are incorporated herein by reference in their entirety.
A master mix is prepared that contains 50 μL of His-hSHIP1 enzyme (0.4-1.6 ng/μL final), 25 μL of the substrate, IP4 (25 or 250 μM final), and 50 μL of test compound in 3.3% ethanol ([…]). Control blanks are also prepared by replacing His-hSHIP1 enzyme, IP4, or test compounds with Phosphate Assay Buffer. […] Each reaction component is preincubated at 37° C. for 30 min before adding to a 96-well microtiter plate. The master mix is then incubated at 37° C. At time 0, 20, 25 and 30 min, 25 μL of the master mix is removed and transferred to a new 96-well microtiter plate, to which 100 μL of Biomol Green Reagent is added to stop the reaction. After incubating the mixture for 20 min at room temperature for color development, the absorbance is read with SpectraMax Plus 96-well plate reader at a wavelength of 650 nm. Phosphate released is plotted against time to calculate the initial velocities (i.e., slope of the graph) at each IP4 concentration. The initial velocities are baseline corrected and the ratio of initial velocities (IP425/IP4250) is calculated and used to rate the test compounds.
The compound numbers in Table 2 correspond to the compound numbers in Table 1 above. Scoring of the compound is expressed as follows: […]

Scoring (Initial Velocity Ratio)	Compound
++	C[C@@H]1CC[C@@]2(OC1)O[C@H]1C[C@H]3[C@H](CO)[C@@H]([C@@]4(C)CC[C@H](O)C[C@@H]4CO)CC[C@]3(C)[C@H]1[C@@H]2C [compound 29, (1S,3S,4R)-3-(hydroxymethyl)-4-((2R,3S,3aR,3bS,5′R,6S,7R,7aS,8aS)-7-(hydroxymethyl)-3,3b,5′-trimethyltetradecahydrospiro[indeno[2,1-b]furan-2,2′-pyran]-6-yl)-4-methylcyclohexanol]
+	C[C@]1([C@H]2CC[C@]3(C)C(c4ccco4)=CC[C@H]3[C@@H]2CO)CC[C@H](O)C[C@@H]1CO [compound 30, (1S,3S,4R)-4-((3aS,6S,7R,7aS)-3-(furan-2-yl)-7-(hydroxymethyl)-3a-methyl-3a,4,5,6,7,7a-hexahydro-1H-inden-6-yl)-3-(hydroxymethyl)-4-methylcyclohexanol]
++	C=C1CC[C@H]2[C@H](CO)[C@@H]([C@@]3(C)CC[C@H](NC(C)=O)C[C@@H]3CO)CC[C@]12C [compound 32, N-((1S,3S,4R)-3-(hydroxymethyl)-4-((3aS,4R,5S,7aS)-4-(hydroxymethyl)-7a-methyl-1-methyleneoctahydro-1H-inden-5-yl)-4-methylcyclohexyl)acetamide]
+	C[C@]1([C@H]2CC[C@]3(C)c4[nH]ncc4C[C@H]3[C@@H]2CO)CC[C@H](O)C[C@@H]1CO [compound 33, (1S,3S,4R)-3-(hydroxymethyl)-4-((4aS,5R,6S,8aS)-5-(hydroxymethyl)-8a-methyl-1,4,4a,5,6,7,8,8a-octahydroindeno[1,2-c]pyrazol-6-yl)-4-methylcyclohexanol]
+	C[C@]1([C@H]2CC[C@@]3(C)[C@@H](CC[C@@]3(O)c3cccs3)[C@@H]2CO)CC[C@H](O)C[C@@H]1CO [compound 34, (1S,3aS,4R,5S,7aS)-5-((1R,2S,4S)-4-hydroxy-2-(hydroxymethyl)-1-methylcyclohexyl)-4-(hydroxymethyl)-7a-methyl-1-(thiophen-2-yl)octahydro-1H-inden-1-ol]
++	C[C@]1([C@H]2CC[C@@]3(C)[C@@H](CC[C@@]3(O)c3ccccn3)[C@@H]2CO)CC[C@H](O)C[C@@H]1CO [compound 36, (1S,3aS,4R,5S,7aS)-5-((1R,2S,4S)-4-hydroxy-2-(hydroxymethyl)-1-methylcyclohexyl)-4-(hydroxymethyl)-7a-methyl-1-(pyridin-2-yl)octahydro-1H-inden-1-ol]
+	C[C@]1([C@H]2CCC3=C(C[C@@H](O)[C@@]3(C)c3ccccc3)[C@@H]2CO)CC[C@H](O)C[C@@H]1CO [compound 37, (1S,2R,4R,5S)-5-((1R,2S,4S)-4-hydroxy-2-(hydroxymethyl)-1-methylcyclohexyl)-4-(hydroxymethyl)-1-methyl-1-phenyl-2,3,4,5,6,7-hexahydro-1H-inden-2-ol]
++	(1S,3S,4R)-4-((2R,3S,3aR,3bS,5′R,6S,7R,7aS,8aS)-7-(aminomethyl)-3,3b,5′-trimethyltetradecahydrospiro[indeno[2,1-b]furan-2,2′-pyran]-6-yl)-3-(hydroxymethyl)-4-methylcyclohexanol acetate [compound 14]
